From US4666932A, “Formamidine derivatives and pharmaceutical use” (Istituto de Angeli S.p.A., priority 1982, dated 1987)

Tests used:
histamine H2 -receptors [1] = target: T1, histamine H2 -receptors (Cavia porcellus, UniProt P47747); test: In vitro inhibition of histamine induced tachycardia (positive chronotropic effect), isolated guinea pig atria; assay type: cell-based; settings: 32° C., pH 7.4, 30 minutes contact before histamine 10^-6 g.ml^-1
T1 construct: isolated guinea pig atria suspended in an organ bath (50 ml); from tissue; host or cells: isolated guinea pig atria
Description: The myocardial preparation, loaded with 1 g isometric tension, was allowed to stabilize 60 minutes, and myocardial contractions were recorded through an isometric lever connected to a strain-gauge coupler and the instantaneous rate was monitored with a cardiotachometer, and a heatwriting pen recorder. After two control responses to histamine (10^-6 g.ml^-1) the test compound was added to the bath at the desired final concentration and left for 30 minutes before the atria were again challenged with histamine. The chronotropic response obtained in the presence of the antagonist was then compared to the control response to histamine, and the percent reduction of the histamine H2 -evoked response was calculated. […] 3, Smooth muscle, Ed. Daniel E. E. Paton, M., Plenum Press, New York, (1975); Ash and Schild, Br. J. Pharmacol. Chemother. 27, 427-439, 1966.

histamine H2 -receptors [2] = target: T2, histamine H2 -receptors (Rattus norvegicus, UniProt P25102); test: In vivo antisecretory activity in histamine-induced gastric secretion (stomach-perfused rat); settings: i.v., histamine 1 mg.kg^-1 hr^-1 intravenous, urethane anesthesia, values expressed taking the compound as a base
T2 construct: from tissue; host or cells: stomach of the living, anaesthetised rat (in vivo)
Text: The ability of the test compounds to inhibit histamine-induced gastric secretion of acid was investigated after intravenous or intraduodenal administration in stomach-perfused rats, according to Gosh and Schild (Br. J. Pharmacol. Chemother. 13, 54, 1958).
The preparation of the animals under general anesthesia (urethane, lg.kg^-1 i.p.) and constant temperature, was achieved by inserting and tying in place polyethylene tubes (PE 50) in the esophagus and in the pyloric-antral region. After the stomach was washed to remove residual of foods, continuous perfusion of the stomach was started with saline, 0.5 ml.min^-1 (37° C.), primed by a Jobling peristaltic pump. After 30 minutes of perfusion adaptation, the stomach perfusate was collected in 30 minute samples, and titrated for acid content, expressed as μEq of NaOH 1N. As control acid output became constant, intravenous perfusion of histamine (1 mg.kg^-1 hr^-1) was started and maintained throughout the experimental period. After the acid secretion had reached the steadily higher level, increasing doses of the test compound were injected intravenously in order to obtain dose-response functions. The ED50 was then calculated by standard procedure.

gastric acid secretion = settings: prior art statement; cited from earlier work

T2 sequence (P25102 whole entry, the tested form may be a part): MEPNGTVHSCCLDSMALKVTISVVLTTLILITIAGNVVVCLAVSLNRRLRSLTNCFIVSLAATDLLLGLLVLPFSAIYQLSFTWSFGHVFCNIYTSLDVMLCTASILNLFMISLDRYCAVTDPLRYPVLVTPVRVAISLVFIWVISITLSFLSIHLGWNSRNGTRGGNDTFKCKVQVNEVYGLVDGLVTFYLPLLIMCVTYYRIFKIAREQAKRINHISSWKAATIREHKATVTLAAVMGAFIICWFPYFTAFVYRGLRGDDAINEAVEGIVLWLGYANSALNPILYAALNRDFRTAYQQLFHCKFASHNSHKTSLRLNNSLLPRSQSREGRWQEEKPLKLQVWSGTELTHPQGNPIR
T1 sequence (P47747 whole entry): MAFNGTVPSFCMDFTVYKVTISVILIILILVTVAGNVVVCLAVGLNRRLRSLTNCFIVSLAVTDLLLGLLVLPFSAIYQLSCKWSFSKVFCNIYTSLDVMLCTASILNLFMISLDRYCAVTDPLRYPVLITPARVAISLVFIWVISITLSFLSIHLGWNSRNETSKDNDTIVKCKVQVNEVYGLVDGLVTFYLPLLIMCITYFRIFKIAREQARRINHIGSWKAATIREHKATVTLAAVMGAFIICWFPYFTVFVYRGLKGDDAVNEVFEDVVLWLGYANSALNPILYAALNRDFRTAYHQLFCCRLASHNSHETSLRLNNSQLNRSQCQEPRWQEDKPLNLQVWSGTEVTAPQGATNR

| SMILES | EC50 (histamine H2 -receptors [1]) | ED50 (histamine H2 -receptors [2]) | effect on gastric acid secretion (gastric acid secretion) |
| --- | --- | --- | --- |
| CC(O)CNC=Nc1ccc(-c2c[nH]cn2)cc1 (stereo not drawn) [6 (a), N-(2-hydroxypropyl)-N'-[4-(imidazol-4-yl)-phenyl]-formamidine] | 1270 nM | 0.043 mg/kg |  |
| CSCCNC=Nc1ccc(-c2c[nH]cn2)cc1 [6 (b), N-(2-Methylthio-ethyl)-N'-[4-(imidazol-4-yl)-phenyl]-formamidine] | 327 nM | 0.022 mg/kg |  |
| N#CCCNC=Nc1ccc(-c2c[nH]cn2)cc1 [6 (j), N-(2-Cyano-ethyl)-N'-[4-(imidazol-4-yl)-phenyl]-formamidine] | 1600 nM | 0.046 mg/kg |  |
| CCCCNC=Nc1ccc(-c2c[nH]cn2)cc1C [6 (k), N-n-Butyl-N'-[4-(imidazol-4-yl)-2-methyl-phenyl]-formamidine] | 309 nM | 0.078 mg/kg |  |
| C=CCNC=Nc1ccc(-c2c[nH]cn2)cc1C [6 (l), N-Allyl-N'-[4-(imidazol-4-yl)-2-methyl-phenyl]-formamidine] | 294 nM | 0.09 mg/kg |  |
| CCCNC=Nc1ccc(-c2c[nH]cn2)cc1OC [6 (m), N-Propyl-N'-[2-methoxy-4-(imidazol-4-yl)-phenyl]-formamidine] | 600 nM | 0.059 mg/kg |  |
| CCOCSCCNC=Nc1ccc(-c2c[nH]cn2)cc1 [8 (b), N-(2-Ethoxymethylthio-ethyl)-N'-[4-(imidazol-4-yl)-phenyl]-formamidine] | 320 nM | 0.083 mg/kg |  |
| CCCNC=Nc1ccc(-c2c[nH]cn2)cc1Br [8 (c), N-n-Propyl-N'-[2-bromo-4-(imidazol-4-yl)-phenyl]-formamidine] | 350 nM | 0.117 mg/kg |  |
| CN/C(=N/CCSCc1nc[nH]c1C)NC#N [CIMETIDINE, cimetidine] |  |  | capable of antagonizing gastric acid secretion |
| COCCN=CNc1ccc(-c2c[nH]cn2)cc1 [Example 6, N-(2-Methoxy-ethyl)-N'-[4-(imidazol-4-yl)-phenyl]-formamidine] | 588 nM | 0.05 mg/kg |  |
| CNC(=S)NCCCCc1cnc[nH]1 [burimamide] |  |  | capable of antagonizing gastric acid secretion |
| COc1ccc(CN(CCN(C)C)c2ccccn2)cc1 [mepyramine] |  |  | no effect on gastric acid secretion |
| C/N=C(\S)NCCSCc1[nH]cnc1C [metiamide] |  |  | capable of antagonizing gastric acid secretion |
| CNC(=C[N+](=O)[O-])NCCSCc1ccc(CN(C)C)o1 [ranitidine] |  |  | capable of antagonizing gastric acid secretion to a greater extent than cimetidine |
| CNC(=NCCSCc1csc(N=C(N)N)n1)NC#N [tiotidine] |  |  | capable of antagonizing gastric acid secretion to a greater extent than cimetidine |
